Calls of active or inactive are those of the source.
Columns and labels:
P388/ADR = assay: cells; format: functional; conditions: Mus musculus
SN12K1 = assay: cells; format: functional; conditions: Homo sapiens
P388 = assay: cells; format: functional; conditions: Mus musculus
HEK293 [1] = assay: NOD1 signaling inhibitors, primary screen, cell-based, luminescence, uHTS (AID 1578); format: functional; conditions: Homo sapiens
HEK293 [2] = assay: cells; format: functional, cell-based; conditions: Homo sapiens
HEK293 [3] = assay: cells; format: functional, cell-based; conditions: Homo sapiens; remark: listed apart in the source
HEK293 [4] = assay: NOD2 signaling inhibitors in MDP-stimulated cells, cell-based, uHTS, luminescence (AID 2001); format: functional; conditions: Homo sapiens
[5] = inhibitors of intracellular T. cruzi replication, confirmation, NIH3T3 host cells, beta-gal luminescence (AID 2044); format: functional, cell-based;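 also: intracellular parasites grown in NIH/3T3 mouse fibroblasts as host cells; luminescent beta-galactosidase reporter signal from transgenic T. cruzi replicating inside host cells; inhibitors lower the luminescence signal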
[6] = growth suppression of PTEN-null colon cells, dose response, cell-based, HCT116 PTEN knockout (AID 1047); format: functional;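 also: HCT116 colon tumor cells with PTEN knocked out; cells exposed to compound for 60 hours before readout; potency for loss of cell viability measured by luminescence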
[7] = cytotoxicity toward NIH3T3 fibroblasts, dose response, counter-screen, cell-based, ATP luminescence, mouse fibroblasts (AID 2010); format: functional;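 also: cells exposed to compound for about 90 hours before reading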
[8] = growth suppression of beta-catenin-knockout colon cells, dose response, cell-based, HCT116, human colon tumor (AID 1045); format: functional;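 also: HCT116 colon tumor cells with beta catenin knocked out; cells exposed to compound for 60 hours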
HEK293 [9] = assay: inhibitors of LMP1-driven NF-kB reporter, dose response, cell-based, HEK293, luciferase, cherry-pick (AID 588343); format: functional; conditions: Homo sapiens
Caspase-3 = molecular target: T1, Caspase-3 (Homo sapiens, UniProt P42574); format: functional;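 also: Dose-response selectivity test against caspase-3 for candidate inhibitors of sentrin-specific proteases (SENPs)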
T1 sequence (P42574 whole entry): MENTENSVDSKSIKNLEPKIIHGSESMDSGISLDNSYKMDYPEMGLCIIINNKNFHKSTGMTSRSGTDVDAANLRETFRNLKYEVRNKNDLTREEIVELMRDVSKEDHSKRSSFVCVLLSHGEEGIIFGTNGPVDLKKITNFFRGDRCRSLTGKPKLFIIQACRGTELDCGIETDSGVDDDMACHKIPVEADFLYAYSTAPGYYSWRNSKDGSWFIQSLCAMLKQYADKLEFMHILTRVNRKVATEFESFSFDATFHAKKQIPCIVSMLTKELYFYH

[10] = molecular target: T2, Sentrin-specific protease 7 (Homo sapiens, UniProt Q9BQF6); format: functional;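 also: Luminescence-based dose-response confirmation of ultra-high-throughput screening hits, measuring inhibition of SENP7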
T2 sequence (Q9BQF6 whole entry): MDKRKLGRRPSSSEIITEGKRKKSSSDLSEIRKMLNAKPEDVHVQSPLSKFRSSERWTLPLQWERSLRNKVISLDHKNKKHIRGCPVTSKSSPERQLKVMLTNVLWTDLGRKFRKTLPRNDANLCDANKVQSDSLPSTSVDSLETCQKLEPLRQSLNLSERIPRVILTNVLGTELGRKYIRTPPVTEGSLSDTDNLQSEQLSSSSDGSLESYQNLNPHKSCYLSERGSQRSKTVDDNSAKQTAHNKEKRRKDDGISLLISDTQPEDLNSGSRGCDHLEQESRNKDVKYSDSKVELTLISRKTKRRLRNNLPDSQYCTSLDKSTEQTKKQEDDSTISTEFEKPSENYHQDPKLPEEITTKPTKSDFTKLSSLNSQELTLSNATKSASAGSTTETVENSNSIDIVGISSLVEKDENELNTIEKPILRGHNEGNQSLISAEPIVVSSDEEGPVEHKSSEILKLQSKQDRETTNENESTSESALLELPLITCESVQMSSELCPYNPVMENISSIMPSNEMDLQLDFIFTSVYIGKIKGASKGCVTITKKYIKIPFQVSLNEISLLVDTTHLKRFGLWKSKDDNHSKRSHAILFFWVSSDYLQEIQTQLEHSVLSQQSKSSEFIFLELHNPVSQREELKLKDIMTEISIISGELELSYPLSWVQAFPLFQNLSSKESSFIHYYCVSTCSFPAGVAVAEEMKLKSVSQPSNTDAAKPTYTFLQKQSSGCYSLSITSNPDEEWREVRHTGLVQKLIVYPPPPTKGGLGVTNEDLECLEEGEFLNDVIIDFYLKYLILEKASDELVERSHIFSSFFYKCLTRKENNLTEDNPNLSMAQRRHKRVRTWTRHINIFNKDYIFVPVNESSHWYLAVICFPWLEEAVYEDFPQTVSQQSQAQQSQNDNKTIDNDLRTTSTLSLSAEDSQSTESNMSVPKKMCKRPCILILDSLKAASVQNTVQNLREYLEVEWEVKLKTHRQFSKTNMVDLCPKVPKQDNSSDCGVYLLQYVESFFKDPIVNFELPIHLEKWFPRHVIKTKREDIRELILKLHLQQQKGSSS

[11] = molecular target: T3, Sentrin-specific protease 6 (Homo sapiens, UniProt Q9GZR1); format: functional;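 also: Luminescence-based dose-response confirmatory assay of SENP6 inhibition, following up an ultra-high-throughput screen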
T3 sequence (Q9GZR1 whole entry): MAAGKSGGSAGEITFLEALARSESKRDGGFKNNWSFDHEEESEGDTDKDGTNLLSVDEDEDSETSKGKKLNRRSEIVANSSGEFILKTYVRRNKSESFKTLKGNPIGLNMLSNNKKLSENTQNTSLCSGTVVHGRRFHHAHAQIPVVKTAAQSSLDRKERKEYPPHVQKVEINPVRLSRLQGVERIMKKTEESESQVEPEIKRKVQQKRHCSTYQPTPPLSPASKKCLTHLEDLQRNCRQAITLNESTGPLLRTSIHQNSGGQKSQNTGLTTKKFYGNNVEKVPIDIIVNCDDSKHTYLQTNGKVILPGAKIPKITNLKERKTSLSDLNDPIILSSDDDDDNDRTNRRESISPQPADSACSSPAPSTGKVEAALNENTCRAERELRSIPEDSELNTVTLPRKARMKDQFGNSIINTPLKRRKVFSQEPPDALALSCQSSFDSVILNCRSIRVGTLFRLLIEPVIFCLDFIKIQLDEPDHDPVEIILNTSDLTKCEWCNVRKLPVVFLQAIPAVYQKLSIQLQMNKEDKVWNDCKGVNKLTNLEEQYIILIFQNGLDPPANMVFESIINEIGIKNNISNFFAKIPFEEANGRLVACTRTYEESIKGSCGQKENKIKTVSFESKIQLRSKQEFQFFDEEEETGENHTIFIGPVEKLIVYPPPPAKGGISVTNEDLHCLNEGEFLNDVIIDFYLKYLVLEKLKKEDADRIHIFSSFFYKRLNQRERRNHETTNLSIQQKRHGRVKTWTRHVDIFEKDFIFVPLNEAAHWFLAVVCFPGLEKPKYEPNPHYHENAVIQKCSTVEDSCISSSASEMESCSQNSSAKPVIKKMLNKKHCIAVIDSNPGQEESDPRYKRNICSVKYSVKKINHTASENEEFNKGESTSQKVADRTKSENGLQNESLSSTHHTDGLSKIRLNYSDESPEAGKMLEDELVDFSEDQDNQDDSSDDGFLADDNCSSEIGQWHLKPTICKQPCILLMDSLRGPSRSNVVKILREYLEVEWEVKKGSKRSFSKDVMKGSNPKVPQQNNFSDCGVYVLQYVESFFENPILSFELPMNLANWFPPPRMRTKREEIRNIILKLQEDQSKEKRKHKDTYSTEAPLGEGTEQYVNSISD

[12] = molecular target: T4, Sentrin-specific protease 8 (Homo sapiens, UniProt Q96LD8); format: functional;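 also: luminescence read-out of SENP8 inhibition, dose-response confirmation following an ultra-high-throughput screen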
T4 sequence (Q96LD8 whole entry): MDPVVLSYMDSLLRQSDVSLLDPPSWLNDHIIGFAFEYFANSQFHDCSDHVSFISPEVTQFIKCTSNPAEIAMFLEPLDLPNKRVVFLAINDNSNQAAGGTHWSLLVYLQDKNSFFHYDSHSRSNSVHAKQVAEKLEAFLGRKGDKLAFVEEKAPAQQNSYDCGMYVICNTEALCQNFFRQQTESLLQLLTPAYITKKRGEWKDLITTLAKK

[13] = system: Streptococcus sp. 'group A'; assay: growth inhibition of control SK(-) GAS strain, dose response, counter-screen for streptokinase expression inhibitor project, luminescence, kanamycin, BacTiterGlo, confirmation (AID 1900); format: functional, organism-based
Streptokinase A = molecular target: T5, Streptokinase A (Streptococcus pyogenes serotype M1, UniProt P10520); assay: S. pyogenes streptokinase expression inhibitors, potency, dose response, plasminogen activation absorbance, OD405 (AID 1914); format: functional, Streptococcus pyogenes M1 GAS;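 also: secreted streptokinase activity via plasminogen activation per viability signal from cell pellet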
T5 sequence (P10520 whole entry): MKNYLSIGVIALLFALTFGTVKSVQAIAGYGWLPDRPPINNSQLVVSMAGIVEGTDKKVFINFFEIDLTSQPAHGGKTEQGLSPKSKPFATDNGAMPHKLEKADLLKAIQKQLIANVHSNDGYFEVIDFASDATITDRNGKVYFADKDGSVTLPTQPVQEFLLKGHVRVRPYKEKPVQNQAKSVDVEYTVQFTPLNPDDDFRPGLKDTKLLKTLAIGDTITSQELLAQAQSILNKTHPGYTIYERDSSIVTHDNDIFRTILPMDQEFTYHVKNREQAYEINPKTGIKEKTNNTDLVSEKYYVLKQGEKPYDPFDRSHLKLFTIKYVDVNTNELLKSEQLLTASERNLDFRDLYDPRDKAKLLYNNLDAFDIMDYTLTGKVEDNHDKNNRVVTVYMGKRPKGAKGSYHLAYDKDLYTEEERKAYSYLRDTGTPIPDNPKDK

Streptococcus = assay: Group A Streptococcus viability loss, dose response, counter-screen for streptokinase expression inhibitor project, luminescence, BacTiterGlo (AID 1915); format: functional, organism-based;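 also: potency for reduction of bacterial viability or growth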
[14] = molecular target: T6, DNA repair and recombination protein RAD54-like (Homo sapiens, UniProt Q92698); assay: inhibitors of human RAD54 branch migration, confirmation, biochemical, fluorescence, cherry-picked samples, dose series (AID 651657); format: functional
T6 sequence (Q92698 whole entry): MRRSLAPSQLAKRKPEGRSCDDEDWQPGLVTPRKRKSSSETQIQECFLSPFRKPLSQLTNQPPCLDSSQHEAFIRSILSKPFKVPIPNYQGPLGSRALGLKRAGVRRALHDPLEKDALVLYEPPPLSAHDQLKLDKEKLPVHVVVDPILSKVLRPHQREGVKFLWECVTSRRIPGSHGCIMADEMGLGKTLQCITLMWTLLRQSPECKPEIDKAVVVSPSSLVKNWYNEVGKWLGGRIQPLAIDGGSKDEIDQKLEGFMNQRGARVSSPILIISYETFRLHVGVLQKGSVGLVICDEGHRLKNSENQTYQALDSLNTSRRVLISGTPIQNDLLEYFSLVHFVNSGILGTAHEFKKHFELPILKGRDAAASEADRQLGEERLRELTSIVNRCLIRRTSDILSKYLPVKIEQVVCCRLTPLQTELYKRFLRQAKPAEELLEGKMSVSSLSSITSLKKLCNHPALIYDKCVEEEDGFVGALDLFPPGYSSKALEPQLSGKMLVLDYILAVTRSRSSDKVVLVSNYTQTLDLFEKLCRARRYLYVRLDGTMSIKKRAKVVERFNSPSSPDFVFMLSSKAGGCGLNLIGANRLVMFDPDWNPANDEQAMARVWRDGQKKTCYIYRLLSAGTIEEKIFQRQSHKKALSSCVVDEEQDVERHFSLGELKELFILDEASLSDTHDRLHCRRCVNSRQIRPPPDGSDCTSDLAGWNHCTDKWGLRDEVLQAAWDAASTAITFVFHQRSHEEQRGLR

CCCCS(=O)(=O)Nc1ccc(Nc2c3ccccc3nc3ccccc23)c(OC)c1
active: GI50 (P388/ADR) 0.255 µM | GI50 (P388) < 0.01 µM
inactive: GI50 (SN12K1) 1.26 µM

CC(=O)Nc1nc(C)c(-c2csc(Nc3cccc([N+](=O)[O-])c3)n2)s1
active: EC50 (HEK293 [1]) 9.4 µM | IC50 (HEK293 [2]) 11.1 µM | IC50 (HEK293 [3]) 17.1 µM | IC50 (HEK293 [4]) 8.61 µM | EC50 [5] 0.995 µM | EC50 [6] 18.2 µM | EC50 [7] 14.1 µM | EC50 [8] 24.8 µM | AC50 (HEK293 [9]) 2.16 µM

Cc1cc(O)c2c(c1)C(=O)c1c(c(O)cc(O)c1-c1c(O)cc(O)c3c1C(=O)c1cc(C)cc(O)c1C3=O)C2=O [SKYRIN]
inactive: GI50 (P388/ADR) 17.9 µM | GI50 (SN12K1) 9.23 µM | GI50 (P388) 8.95 µM

Cc1c(/C=C/C(=O)c2ccccc2O)cnn1C
active: IC50 (Caspase-3) 15.3 µM | IC50 [10] 4.84 µM | IC50 [11] 14.2 µM | IC50 [12] 25.2 µM

Cc1cccc(Nc2nc(-c3ccc(F)c(C)c3)cs2)n1
active: EC50 [13] 8.77 µM | EC50 (Streptococcus) 26.7 µM | IC50 (Caspase-3) 41.4 µM | IC50 [10] 5.75 µM | IC50 [11] 24 µM | IC50 [12] 41.5 µM
> 50 µM (not active): EC50 (Streptokinase A)

O=C(c1cccs1)c1coc2ccc(O)cc12
active: IC50 (Caspase-3) 13.7 µM | IC50 [10] 7.28 µM | IC50 [11] 10.6 µM
inactive: IC50 [12] > 100 µM

OC(CBr)C(O)C(O)C(O)CBr (stereo not drawn)
inactive: GI50 (P388/ADR) 5.89 µM | GI50 (SN12K1) > 100 µM | GI50 (P388) 3.53 µM

Cc1c(NC(=O)c2ccccc2N)cccc1C(=O)O
active: IC50 (Caspase-3) 38.1 µM | IC50 [10] 2.73 µM | IC50 [11] 9.43 µM | IC50 [12] 11.4 µM

Nc1nc(O)c2ncn(C3OC(CO)C(O)C3O)c2n1 (stereo not drawn)
inactive: GI50 (P388/ADR) 2.33 µM | GI50 (SN12K1) 63.2 µM | GI50 (P388) 9.73 µM

CC[C@@]1(O)CC(OC2CC(N3CCOCC3)C(O)C(C)O2)c2c(O)c3c(c(O)c2[C@H]1O)C(=O)c1cccc(O)c1C3=O (stereo partly drawn)
active: GI50 (P388/ADR) 9.75e-06 µM | GI50 (P388) 0.00366 µM

CCOC(=O)c1cnc2ccc(C)cc2c1NCCN1CCOCC1
active: AC50 [14] 98.8 µM
